Source: patent US20100003217A1, “Compounds and Pharmaceutical Compositions for the Treatment of Viral Infections” (priority 2008, published 2010)
“And” between values parts separate entries of the source, which are not always exact repeats. Identical values can stand only once.

Test system: rat primary hepatocytes
Assay: Metabolic disposition of [^14C]-Compound 1 and [^14C]-2′-C-methyl guanosine in rat primary hepatocytes (incubation medium, cellular extracts, nucleotide levels)
Assay type: in vitro ADME, Sprague Dawley rat
Procedure: Primary hepatocytes: Freshly isolated cells from animal and human liver were obtained in suspension on ice. Cells were pelleted by centrifugation at 70-75×g (rat) or 95-90×g (monkey and human) and resuspended at 0.8 million cells per mL of platting medium (William's E supplemented with 5% FBS, 0.5% penicillin-streptomycin, 1% L-glutamine, 4 μg/mL insulin and 1 μM dexamethasone). Multi-well collagen I-coated plates (rat tail collagen type I; 12- or 6-well) were then seeded by addition of 1 mL (12-well; 0.8 million cells/well) or 2 mL (6-well; 1.6 million cells/well) of cell suspension. The plates were gently shaken to evenly distribute the cells and placed in an incubator at 37° C. for approximately 4 to 6 hours to allow cells to attach. Once cells were attached, the platting medium was removed and replaced with hepatocyte culture medium (William's E supplemented with penicillin-streptomycin, 1% L-glutamine, 1% insulin-transferrin-selenium and 0.1 μM dexamethasone). Cells were left overnight in an incubator at 37° C. to acclimatize to culture and the medium.
Hepatocyte incubations with radiolabeled Compound 1 and 2′-C-methyl guanosine, both labeled in the C-8 position of the guanine moiety, were conducted at a final volume of 2.0 mL hepatocyte culture medium/well ([…]). Culture medium from overnight incubation of cells was removed and replaced with fresh medium, pre-warmed to 37° C., containing 1 or 10 μM [^14C]-Compound 1 ([…]) or [^14C]-2′-C-methyl guanosine (127 DPM/μmol) from a stock solution in DMSO (final DMSO concentration was 0.1%) or 50% ethanol (final ethanol concentration was 0.2%). After 1, 4, 8 and 24 hours, 0.5-1.0 mL of incubation medium was removed and stored at −20° C. until analysis (described below). The remaining medium was discarded and cell monolayers were carefully washed two times with ice-cold PBS. Following the last wash, all PBS was carefully removed and 1.0 mL of extraction solution (ice-cold 70% methanol) added. Cells were scrapped off and suspended in the extraction solution, transferred to 2 mL polypropylene microfuge tubes and intracellular contents extracted overnight at −20° C.
Preliminary identification of putative metabolites was conducted by comparing the retention time of observed metabolites in incubation medium and cellular extracts with retention times obtained with chemically synthesized standards using the chromatography conditions described below. Further identification of 2′-C-methyl guanosine nucleotides (mono-, di- and triphosphate) was carried out by incubating cellular extract samples with alkaline phosphatase (10 units for 60 min at 37° C.) and comparing the HPLC retention times of the resulting nucleosides with that of authentic 2′-C-methyl guanosine.
Cellular extracts were prepared by centrifugation at 16,000 RCF using an Eppendorf microcentrifuge (Eppendorf, Model 5415D) for 10 min to remove cellular debris. An aliquot of 5-10 μL of the supernatant was added to 5 mL of EcoLite™ (MP, Irvine, Calif.) liquid scintillation cocktail and radioactivity measured by liquid scintillation counting (LSC) using a Beckman Coulter LS6500 multipurpose liquid scintillation counter (Beckman Instruments, Fullerton, Calif.). The remaining sample was then dried using a Labconco refrigerated centrivap concentrator (Labconco, Kansas City, Mo.). Dry extracts were reconstituted in 120 μL of HPLC-grade water and centrifuged at 16,000 RCF using an Eppendorf microcentrifuge for 10 min. Prior to HPLC analysis (described below), radioactivity of the concentrated extracts was measured by LSC using 5 μL aliquots. Extraction recovery was then determined by comparing total radioactivity in extracts before and after drying. The remaining extract was then analyzed by HPLC with online radioactivity detection using a Flow Scintillation Analyzer Radiomatic™ 515TR. Radioactivity in the separated components was quantified by integrating the peaks using Flo-One™ Software (Perkin Elmer Life Sciences). […]

[1] = rat hepatocytes (Rs458), 1 μM [^14C]-Compound 1, 0 h
[2] = rat hepatocytes (Rs458), 1 μM [^14C]-Compound 1, 1 h
[3] = rat hepatocytes (Rs458), 1 μM [^14C]-Compound 1, 8 h
[4] = rat hepatocytes (Rs458), 1 μM [^14C]-Compound 1, 24 h
[5] = rat hepatocytes Rs448, 10 μM [^14C]-2′-C-methyl guanosine, 1 h
[6] = rat hepatocytes Rs448, 10 μM [^14C]-2′-C-methyl guanosine, 4 h
[7] = rat hepatocytes Rs448, 10 μM [^14C]-2′-C-methyl guanosine, 8 h
[8] = rat hepatocytes Rs448, 10 μM [^14C]-2′-C-methyl guanosine, 24 h
[9] = rat hepatocytes Rs458, 1 μM [^14C]-2′-C-methyl guanosine, 1 h
[10] = rat hepatocytes Rs458, 1 μM [^14C]-2′-C-methyl guanosine, 8 h
[11] = rat hepatocytes Rs458, 1 μM [^14C]-2′-C-methyl guanosine, 24 h
[12] = rat hepatocytes Rs458, 10 μM [^14C]-2′-C-methyl guanosine, 1 h
[13] = rat hepatocytes Rs458, 10 μM [^14C]-2′-C-methyl guanosine, 4 h
[14] = rat hepatocytes Rs458, 10 μM [^14C]-2′-C-methyl guanosine, 8 h
[15] = rat hepatocytes Rs458, 10 μM [^14C]-2′-C-methyl guanosine, 24 h

C[C@@]1(O)[C@H](O)[C@@H](COP(=O)(O)O)O[C@H]1n1cnc2c(=O)[nH]c(N)nc21 [Compound 5, [(2R)-2-methyl-β-D-ribofuranosyl]guanine 5′-monophosphate]
metabolites observed in cellular extracts (% of total radioactivity) (rat hepatocytes (Rs448, Rs458), 10 μM [^14C]-Compound 1, 1 h, listed as Compd 5): 4.37% and 2.65%
metabolites observed in cellular extracts (% of total radioactivity) (rat hepatocytes (Rs448, Rs458), 10 μM [^14C]-Compound 1, 4 h, listed as Compd 5): 4.02% and 4.53%
metabolites observed in cellular extracts (% of total radioactivity) (rat hepatocytes (Rs448, Rs458), 10 μM [^14C]-Compound 1, 8 h, listed as Compd 5): 3.23% and 3.84%
2′-C-methyl guanosine nucleotide levels in cellular extracts [1]: BLD (BLD = below limit of detection (0.02 pmol/million cells))
metabolites observed in medium (% of total radioactivity) [1]: BLD
2′-C-methyl guanosine nucleotide levels in cellular extracts [2]: 6.00 pmol/million cells
metabolites observed in cellular extracts (% of total radioactivity) [2]: 3.74%
metabolites observed in medium (% of total radioactivity) [2]: BLD
2′-C-methyl guanosine nucleotide levels in cellular extracts [3]: 11.0 pmol/million cells
metabolites observed in cellular extracts (% of total radioactivity) [3]: 3.51%
metabolites observed in medium (% of total radioactivity) [3]: 6.41%
2′-C-methyl guanosine nucleotide levels in cellular extracts [4]: 11.0 pmol/million cells
metabolites observed in cellular extracts (% of total radioactivity) [4]: 6.68%
metabolites observed in medium (% of total radioactivity) [4]: no Compound 5 was detected and BLD
metabolites observed in medium (% of total radioactivity) (rat hepatocytes (lots Rs448, Rs458), 10 μM [^14C]-Compound 1, 0 h): BLD
metabolites observed in medium (% of total radioactivity) (rat hepatocytes (lots Rs448, Rs458), 10 μM [^14C]-Compound 1, 4 h): 5.3% and 3.6%
metabolites observed in medium (% of total radioactivity) (rat hepatocytes (lots Rs448, Rs458), 10 μM [^14C]-Compound 1, 8 h): 6.1% and 3.3%
metabolites observed in medium (% of total radioactivity) (rat hepatocytes (lots Rs448, Rs458), 10 μM [^14C]-Compound 1, 24 h): 2.9% and 2.6%
2′-C-methyl guanosine nucleotide levels in cellular extracts (rat hepatocytes Rs448, 10 μM [^14C]-2′-C-methyl guanosine, 0 h): 0 pmol/million cells
2′-C-methyl guanosine nucleotide levels in cellular extracts [5]: BLD^a (BLD = below limit of detection (0.02 pmol/million cells))
Major metabolites observed in cellular extracts (% of total radioactivity) [5]: BLD^a (BLD = below limit of detection (30 DPM))
2′-C-methyl guanosine nucleotide levels in cellular extracts [6]: BLD (BLD = below limit of detection (0.02 pmol/million cells))
Major metabolites observed in cellular extracts (% of total radioactivity) [6]: BLD (BLD = below limit of detection (30 DPM))
2′-C-methyl guanosine nucleotide levels in cellular extracts [7]: BLD (BLD = below limit of detection (0.02 pmol/million cells))
Major metabolites observed in cellular extracts (% of total radioactivity) [7]: BLD (BLD = below limit of detection (30 DPM))
2′-C-methyl guanosine nucleotide levels in cellular extracts [8]: 25.0 pmol/million cells
Major metabolites observed in cellular extracts (% of total radioactivity) [8]: 2.56 % of total radioactivity
2′-C-methyl guanosine nucleotide levels in cellular extracts (rat hepatocytes Rs448, 10 μM [^14C]-Compound 1, 0 h): 0 pmol/million cells
2′-C-methyl guanosine nucleotide levels in cellular extracts (rat hepatocytes Rs448, 10 μM [^14C]-Compound 1, 1 h): 43.0 pmol/million cells
2′-C-methyl guanosine nucleotide levels in cellular extracts (rat hepatocytes Rs448, 10 μM [^14C]-Compound 1, 4 h): 81.0 pmol/million cells
2′-C-methyl guanosine nucleotide levels in cellular extracts (rat hepatocytes Rs448, 10 μM [^14C]-Compound 1, 8 h): 79.0 pmol/million cells
2′-C-methyl guanosine nucleotide levels in cellular extracts (rat hepatocytes Rs448, 10 μM [^14C]-Compound 1, 24 h): 39.0 pmol/million cells
2′-C-methyl guanosine nucleotide levels in cellular extracts (rat hepatocytes Rs458, 1 μM [^14C]-2′-C-methyl guanosine, 0 h): BLD (BLD = below limit of detection (0.02 pmol/million cells))
2′-C-methyl guanosine nucleotide levels in cellular extracts [9]: BLD (BLD = below limit of detection (0.02 pmol/million cells))
Major metabolites observed in cellular extracts (% of total radioactivity) [9]: BLD^a (BLD = below limit of detection (30 DPM))
2′-C-methyl guanosine nucleotide levels in cellular extracts [10]: BLD (BLD = below limit of detection (0.02 pmol/million cells))
Major metabolites observed in cellular extracts (% of total radioactivity) [10]: BLD (BLD = below limit of detection (30 DPM))
2′-C-methyl guanosine nucleotide levels in cellular extracts [11]: 5.40 pmol/million cells
Major metabolites observed in cellular extracts (% of total radioactivity) [11]: 6.83 % of total radioactivity
2′-C-methyl guanosine nucleotide levels in cellular extracts (rat hepatocytes Rs458, 10 μM [^14C]-2′-C-methyl guanosine, 0 h): 0 pmol/million cells
2′-C-methyl guanosine nucleotide levels in cellular extracts [12]: BLD (BLD = below limit of detection (0.02 pmol/million cells))
Major metabolites observed in cellular extracts (% of total radioactivity) [12]: BLD^a (BLD = below limit of detection (30 DPM))
2′-C-methyl guanosine nucleotide levels in cellular extracts [13]: BLD (BLD = below limit of detection (0.02 pmol/million cells))
Major metabolites observed in cellular extracts (% of total radioactivity) [13]: BLD (BLD = below limit of detection (30 DPM))
2′-C-methyl guanosine nucleotide levels in cellular extracts [14]: BLD (BLD = below limit of detection (0.02 pmol/million cells))
Major metabolites observed in cellular extracts (% of total radioactivity) [14]: BLD (BLD = below limit of detection (30 DPM))
2′-C-methyl guanosine nucleotide levels in cellular extracts [15]: 88.0 pmol/million cells
Major metabolites observed in cellular extracts (% of total radioactivity) [15]: 9.39 % of total radioactivity
2′-C-methyl guanosine nucleotide levels in cellular extracts (rat hepatocytes Rs458, 10 μM [^14C]-Compound 1, 0 h): 0 pmol/million cells
2′-C-methyl guanosine nucleotide levels in cellular extracts (rat hepatocytes Rs458, 10 μM [^14C]-Compound 1, 1 h): 28.0 pmol/million cells
2′-C-methyl guanosine nucleotide levels in cellular extracts (rat hepatocytes Rs458, 10 μM [^14C]-Compound 1, 4 h): 88.0 pmol/million cells
2′-C-methyl guanosine nucleotide levels in cellular extracts (rat hepatocytes Rs458, 10 μM [^14C]-Compound 1, 8 h): 86.0 pmol/million cells
2′-C-methyl guanosine nucleotide levels in cellular extracts (rat hepatocytes Rs458, 10 μM [^14C]-Compound 1, 24 h): 181 pmol/million cells
